According to patent US12390409B2 (NeueRe, LLC, priority 2018, dated 2025):

Legend:
skin of volar forearm = assay: Dose-ranging study of ambroxol on TEWL, 99.9% DMSO, volar forearm; type: in vivo, human; conditions: ambroxol concentrations much lower than 2.0 mM (20 micromolar to 2.0 mM tested) in 99.9% DMSO, 10 microliter, 1 hr and 10 hr post-application
Source text: Apart from these additional concentrations, conditions and the formulation (99.9% DMSO) were essentially the same as those described in Example 1, except in this experiment 10 microliter aliquots were spread and the skin region tested was on the volar forearm.
The data in FIG. 3 are presented as histograms, with only start points (at 1 hr post-application) and end-points (at 10 hr post application) shown. Two things are notable about this experiment. […] This may reflect the relative delicacy of volar forearm skin compared to skin of the upper thigh, such that the same treatment may be more or less harsh depending on the skin area treated. […] [Symbols: Open rectangles, skin TEWL measured at 1 hr post-application; hatched rectangles, skin TEWL measured at 10 hr post-application; dashed line, average TEWL value (7.8±1.1 g/m^2-hr) of untreated skin from areas adjacent to the treatment sites. All measurements were taken in quadruplicate (n=4) or quintuplicate (n=5). Shown for each value are the error bars (standard deviation of quadruplicate or quintuplicate measurements.]

human skin = assay: TEWL recovery after disruption by 60:40 DMSO:water formulation, upper thigh; type: in vivo; conditions: 2.0 mM ambroxol in 60:40 (v/v) DMSO:water
Method: 60% DMSO has been reported to be the minimum concentration of DMSO needed to disrupt ceramide-containing lipid bilayers in skin (Notman et al Biophysical Journal 93:2056 [2007]).
All time points were measured in duplicate or triplicate.
Also like in the experiment shown in FIG. 1, there is an enduring improvement of approximately 5 g/m^2-h in the rate of water loss of the ambroxol-treated skin relative to skin treated with the DMSO:water formulation alone. […] Shown for each point are the error bars (standard deviation of duplicate or triplicate measurements); for some points the error bars are less visible because they were smaller than the diameter of the symbol representing that point.]

skin = conditions: other case reports, positive patch test; cited from earlier work
human (adult male) skin = assay: TEWL recovery after skin barrier disruption by 99.9% DMSO, upper thigh; type: in vivo; conditions: 2.0 mM ambroxol in 99.9% DMSO
Source text: Dimethyl sulfoxide (DMSO) is a well-known skin permeability enhancer that is thought to act by disrupting ceramide-containing lipid bilayers of the stratum corneum and thereby compromising the permeability barrier of the skin (Agner and Serup, Clin. Expt. Dermatology 14:214 [1989]; Notman et al Biophysical Journal 93:2056 [2007]). Among its many protective functions, this lipid barrier regulates transepidermal water loss (TEWL) and is vital for the prevention of skin dryness in mammals. Thus, it is accepted by researchers in the field, that measurements of TEWL can be used to directly assay the integrity of the skin permeability barrier (Fluhr et al Experimental Dermatology 15:483 [2006]).
All experiments were conducted in a narrow range of relative humidity (30-40%) and at stable room temperatures of 18-22° C.
Transepidermal water loss (TEWL) measurements, in units of g/m^2-h, were taken at various time points after applying the solutions (at t=0) to the skin sites. TEWL values were assessed using a wireless closed-chamber system (VapoMeter, Delphin Technologies Ltd., Kuopio, Finland) that automatically calculates water evaporation rates over a small area (˜1.3 cm^2); each measurement took about 10 s (Fluhr et al Experimental Dermatology 15:483 [2006]). […] All time points were measured in duplicate or triplicate. […] The improvement in TEWL, a difference of 4-6 g/m^2-h between the two curves, then maintains itself over the remaining course of the experiment. […] Shown for each point are the error bars (standard deviation of duplicate or triplicate measurements); for some points the error bars are less visible because they were smaller than the diameter of the symbol representing that point.]

## Nc1c(Br)cc(Br)cc1CN[C@H]1CC[C@H](O)CC1 [ambroxol, trans-4-(2-amino-3,5-dibromobenzylamino) cyclohexanol]
Skin of volar forearm
  ameliorating the increase in TEWL caused by the DMSO insult: positive results
Human skin
  time of the burst of TEWL improvement: in the first hour post-application
skin
  adverse skin reaction in case reports: systemic contact dermatitis
Human (adult male) skin; 20 microliter on about 2 cm^2 upper thigh skin, maintained after the burst over the remaining course
  improvement in TEWL, difference between ambroxol and control (DMSO only) curves: 4-6 g/m^2-h
Human (adult male) skin; upper thigh
  period of the rapid burst of skin barrier healing: approximately 30 minutes
  time post-application of sudden drop in TEWL: about 60 minutes
